Experimental data: publication PMC8448514, “Exploratory comparisons between different anti-mitotics in clinically-used drug combination in triple negative breast cancer” (Oncotarget, 2021)
Blank lines part the entries; values can stand above or below the molecule they belong to.

Key:
[1] = tested on: Balb-c nude mice bearing breast tumor; assay: Biochemical analysis of blood (liver and kidney toxicity); format: in vivo; conditions: 20 mg/kg i.p., monotherapy
[2] = tested on: intratumoral necrotic area of MDA-MB-231 tumor; assay: Histopathological analysis of tumor sections (H&E); format: in vivo, mice; conditions: monotherapy; 4bt, 4bc 80 mg/Kg, paclitaxel 20 mg/Kg; vs vehicle
Description: Tumors and lungs were fixed in 10% buffered formalin and processed for paraffin embedding. Processed material was sectioned at 5 μm, and sections were stained with hematoxylin & eosin (HE) for analysis under the light microscope Axiovert (Zeiss, Germany). Tumor and lung sections were analyzed for general histopathological assessment.

[3] = tested on: breast cancer induced by MDA-MB-231; assay: Tumor volume monitoring in xenograft model; format: in vivo, mice; conditions: used in combination with doxorubicin 10 mg/Kg and cyclophosphamide 100 mg/Kg; 4bt 80 mg/Kg, paclitaxel 10 mg/Kg
Description: Mice were anesthetized with ketamine (80 mg/kg of body weight) and xylazine (20 mg/kg of body weight) solution. 2 × 10^6 MDA-MB-231 cells in PBS/20% type I Collagen (100 μL) were inoculated in the fourth right mammary fat pad. After tumor establishment, about 5 weeks after inoculation, mice were randomized into experimental groups (n = 5 per group), and treatment started.

[4] = tested on: Balb-c nude mice bearing breast tumor; assay: White blood cell and platelet analysis (complete blood count); format: in vivo; conditions: 20 mg/kg i.p., monotherapy, mean ± SEM
[5] = tested on: Balb-c nude mice bearing breast tumor; assay: Red blood cell analysis (complete blood count); format: in vivo; conditions: 20 mg/kg i.p., monotherapy; mean ± SEM
tumor cell apoptosis = assay: TUNEL assay for apoptosis in tumor sections; format: in vivo, mice; conditions: paclitaxel 20 mg/Kg; AC-T; AC-4bt; vs vehicle
Description: The level of apoptosis in tumor sections was determined by TUNEL assay. TUNEL staining was performed on paraffin-embedded sections using Click-iT™ TUNEL Colorimetric IHC Detection Kit (Invitrogen, Carlsbad – USA) according to the manufacturer’s protocol. Briefly, the sections were dewaxed, rehydrated, and immersed in 4% paraformaldehyde fixative solution for 15 minutes. They were then washed and incubated with proteinase K for 20 min at room temperature. The slides were washed with PBS for 5 minutes, and immersed in 4% paraformaldehyde fixative solution again for 5 minutes at room temperature. Slides were then washed with PBS (twice, for 5 minutes) and rinsed with deionized water. Samples were incubated in TdT Reaction Buffer for 10 minutes at 37°C. The TdT reaction buffer was gently removed using paper towels and slides were incubated with TdT Reaction Mixture for another hour at 37°C in a humidified chamber. After being rinsed with PBS, slides were immersed in 2X SSC for 15 minutes, in order to fully quench TdT reaction. Slides were washed with 1X Click-iT™ TUNEL Colorimetric Wash solution and incubated with the Click-iT™ TUNEL Colorimetric Reaction cocktail for 30 minutes at 37°C, protected from light. […]
After acquisition, images were submitted to a semi-quantitative analysis using the IHC Profiler plug-in (National Institute of Health) from ImageJ software. […]

Balb-c/nude mice = assay: Behavioral observation (motor capacity, peripheral neuropathy); format: in vivo; conditions: a few minutes after administration; paclitaxel 10 or 20 mg/Kg, 4bt 80 mg/Kg; monotherapy and drug combination
Description: (§2) Animals of all experimental groups were monitored with regards to their weight, behavior and clinical aspects. Animals body weight were assessed prior the beginning of treatment and twice a week throughout the experiment period as an important indicator of toxicity.

[6] = Body weight and clinical monitoring
Description: as §2
All treatments were administered intraperitoneally (i.p) (Figure 7).
Animal weight was also monitored with help of a digital scale twice a week.

ALDH1-A1 = ALDH1-A1 immunohistochemistry of tumor sections; format: in vivo, mice; conditions: 4bt, 4bc 80 mg/Kg, paclitaxel 20 mg/Kg; vs vehicle
From the text: After acquisition, images were submitted to a semi-quantitative analysis using the IHC Profiler plug-in (National Institute of Health) from ImageJ software. Images were submitted to a deconvolution process, and histogram profiles, corresponding to pixel intensity as well as a stain-positivity percentage value derived from a scoring system based on optical density, were automatically generated. Areas rated as highly positive or positive were considered for analysis.
In order to evaluate the role of KIF-11 inhibitors in some key features for tumor progression and development, we analyzed tumor sections for the levels of KIF-11, ALDH1-A1 and Ki67 expression by immunofluorescence (IF) or immunohistochemistry. Immunostaining was performed on 5 μm sections of formalin-fixed paraffin-embedded (FFPE) tissue. […]
(§1) Slides were then washed in PBS/0.025% Triton, incubated at room temperature in the dark with (1:500) Alexa Fluor 488-Anti-rabbit secondary antibody, for KIF-11 and Ki67, or (1:250) Goat anti-rabbit HRP, for ALDH1-A1 for 1 hour, washed three times with PBS. […] Slides for ALDH1-A1 analysis were counterstained with hematoxylin and analyzed under light microscope Axiovert (Zeiss, Germany).
For ALDH1-A1 quantification of positive areas, IHC Profiler plug-in was used as previously described for TUNEL analysis.

KIF11 = assay: Intratumoral KIF11 expression by immunofluorescence; format: in vivo, mice; conditions: 4bt, 4bc 80 mg/Kg; paclitaxel 20 mg/Kg; AC-T; AC-4bt; vs vehicle
Description: In order to evaluate the role of KIF-11 inhibitors in some key features for tumor progression and development, we analyzed tumor sections for the levels of KIF-11, ALDH1-A1 and Ki67 expression by immunofluorescence (IF) or immunohistochemistry. Immunostaining was performed on 5 μm sections of formalin-fixed paraffin-embedded (FFPE) tissue. Tissue slides were baked, deparaffinized in xylene and passed through graded alcohols for rehydration. Antigen retrieval was achieved submitting samples to a 10 mM Trisodium Citrate solution, pH 6.0 in a steam pressure cooker at 100°C for 10 minutes. Slides were then left immersed in the Trisodium Citrate solution at room temperature for 20 minutes before being washed with PBS/0.025% Triton. The area around each section was delimited by a hydrophobic liquid blocker (PAP-Pen) in order to assure homogeneous distribution of reagents and antibodies.
as §1

breast cancer = conditions: cited from earlier work

Basophils (%) [4]: 2 ± 1.25%
Basophils (Abs) [4]: 42.79 ± 22.69
Eosinophils (%) [4]: 0.00%
Eosinophils (Abs) [4]: 0.00
Lymphocytes (%) [4]: 78.63 ± 2.36%
Lymphocytes (Abs) [4]: 1682.24 ± 602.57
MPV (mean platelet volume) [4]: 7.07 ± 0.12 fL
Monocytes (%) [4]: 4.79 ± 3.74%
Monocytes (Abs) [4]: 102.51 ± 65.75
Neutrophils (%) [4]: 12.07 ± 5.10%
Neutrophils (Abs) [4]: 258.30 ± 103.76
Platelets [4]: 1070.01 ± 37.28 10^3/mm^3
WBC (white blood cells) [4]: 2139.39 ± 684.75
WBC (white blood cells) ([4]; listed as paclitaxel): 2139.39 ± 684.75
Hematocrit [5]: 42.56 ± 0.62 %
Hemoglobin [5]: 12.80 ± 0.14 g/dL
MCH (mean corpuscular hemoglobin) [5]: 15.73 ± 0.05 pg
MCHC (mean corpuscular hemoglobin concentration) [5]: 30.07 ± 0.12 g/dL
MCV (mean corpuscular volume) [5]: 52.23 ± 0.42 fL
RDW (red cell distribution width) [5]: 22.85 ± 0.98 %
Red cells [5]: 8.15 ± 0.08 10^6/mm^3
Motor capacity / behavioral changes (Balb-c/nude mice): reduced motor capacity
Compound: CC(=O)O[C@H]1C(=O)[C@@]2(C)[C@H]([C@H](OC(=O)c3ccccc3)[C@]3(O)C[C@H](OC(=O)[C@H](O)[C@@H](NC(=O)c4ccccc4)c4ccccc4)C(C)=C1C3(C)C)[C@]1(OC(C)=O)CO[C@@H]1C[C@@H]2O [Paclitaxel, paclitaxel]
Creatinine [1]: < 0,2 mg/dL
ALP (alkaline phosphatase) ([1]; mean ± SEM): 86.50 ± 10.5 U/L
ALT (alanine transaminase) ([1]; mean ± SEM): 21.50 ± 1.50 UI/L
AST (aspartate aminotransferase) ([1]; mean ± SEM): 98.50 ± 21.50 UI/L
GGT (gamma-glutamyl transferase) ([1]; mean ± SEM): < 1 U/L
LDH (lactate dehydrogenase) ([1]; mean ± SEM): 464.50 ± 50.5 U/L
Urea ([1]; mean ± SEM): 59.00 ± 2.00 mg/dL
Intratumoral necrotic area [2]: reduction in the size of necrotic area
Tumor volume [3]: significantly decreasing the tumor volume
TUNEL positive area staining (apoptotic activity) (tumor cell apoptosis): substantially increase positive area staining
Body weight change ([6]; cycles of paclitaxel 10 mg/Kg or 4bt 80 mg/Kg after AC): did not cause any further reduction
Body weight change ([6]; monotherapy, 4bt and 4bc 80 mg/Kg, PTX 20 mg/Kg, 1 week after the beginning of treatment, no significant change afterwards): weight reduction
ALDH1-A1 expression change (ALDH1-A1): didn’t cause significant changes in ALDH1-A1 expression
Intratumoral KIF11 expression (KIF11): didn’t cause any change on KIF11 levels

Compound: Cc1ccc(C(=O)N(CCCN)[C@@H](c2nc3cc(Cl)ccc3c(=O)n2Cc2ccccc2)C(C)C)cc1 [Ispinesib]
Neurotoxicity / tolerability (breast cancer; clinical): no indication of neurotoxicity
Antitumor activity in phase I trial (breast cancer; phase I trial in breast cancer): relevant antitumor activity and stabilization of the disease
